The values that follow come from patent US8158589B2, “Peptides with the capacity to bind to transforming growth factor β1 (TGF-β1)” (Proyecto Biomedicine Cima, S.L., priority 2003, dated 2012).

Assay [1] addresses T1, TGF-β1 (Homo sapiens, UniProt P01137). Put plainly: CTGF mRNA expression induced by TGF-β1 in IMR-90 lung fibroblasts, real time RT-PCR. It counts as cell-based. Details: purchased R&D Systems; host or cells: added to IMR-90 human lung fibroblasts. To be noted: IMR-90 cells, 5 ng/ml TGF-β1, peptide 100 μg/ml, 6 hours. On the procedure:
IMR-90 human lung fibroblasts (ATCC, Manassas, Va.) were cultured in EMEM medium (Cambrex, Belgium) supplemented with 10% fetal bovine serum (FBS), 1 mM sodium pyruvate, 0.1 mM nonessential amino acids, 100 U/ml penicillin and 100 μg/ml streptomycin (Gibco BRL, UK). For experiments, 6×10^4 cells/well were cultured in 6-well plates in 2 ml of medium and when they were 80% confluent, medium was replaced with serum-free EMEM for 48 h to induce quiescence. TGF-β1 (5 ng/ml) and P17 (100 μg/ml) were co-incubated for 90 min at 37° C. to allow binding of both molecules before addition to cell cultures. Quiescent cells were then stimulated with TGF-β1 and/or P17 for up to 6 or 24 h. After these incubation periods, fibroblasts were harvested for gene and protein analysis, respectively.
Total RNA was purified from IMR-90 fibroblasts and whole lung samples using Ultraspec RNA (Biotecx; Houston, Tex.) according to the manufacturer's instructions. […] Expression of human Connective Tissue Growth Factor (CTGF) mRNA induced by TGF-β1 in IMR-90 fibroblasts was measured by real time RT-PCR using an ICycler and IQ SYBR Supermix (Bio-Rad, Italy). […] For in vivo analysis, expression of murine Fibronectin (FN), extra domain A of Fibronectin (EDA-FN), Collagen type I and Interferon gamma (IFN-γ) was measured in lungs, using Histone 3 as internal control. […]
(In general: Real-time PCR tracks product formation cycle by cycle.)
Target sequence in this assay (P01137 279-390 limits assumed): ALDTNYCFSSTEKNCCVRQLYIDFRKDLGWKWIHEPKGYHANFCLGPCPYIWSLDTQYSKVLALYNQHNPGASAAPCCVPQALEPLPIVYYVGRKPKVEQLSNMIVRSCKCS

In assay [2] the target is T1, TGF-β1. Put plainly: Biopanning of phage-displayed 15-aa peptide library on biotinylated TGF-β1, number of colonies per sequence. The following applies: clones carrying the sequence among 108 colonies after the last biopanning cycle; approximate indication of affinity for TGF-β1. It counts as binding. Further details: purchased Roche; host or cells: added to Mv-1-Lu (CCL-64) mink lung epithelial cells. From the text: These libraries comprise a plurality of filamentous bacteriophages (M13), each one containing a peptide genetically fused to a protein of the virus envelope—in this case bound to the N-terminal end of envelope protein pIII (FIG. 1). […] In the phage libraries, the sequence encoding the peptide originates from a sequence degenerated in each one of the 15 positions with the 20 natural amino acids, thus allowing the presentation of 1.1×10^12 possible sequences of 15 amino acids in different phages. The physical ratio, 1:1, between the peptide sequence and the DNA encoding it within the bacteriophage allows the selection (from a broad range of variants) of those sequences that specifically bind to TGF-β1. This process is carried out via an in vitro selection protocol known as “biopanning”.
This technique involves incubating a set of phages representative (to practical effects) of all the 15-aa variants, in a plate blocked with streptavidin (10 μg/ml in 0.1 M NaHCO3, during 2 h at room temperature) to which biotinylated TGF-β1 is added. […] TGF-β1 contacts the peptides carried by the phages at a concentration of […]. After about 12 hours incubation, unbound phages are eliminated by 5 washings with PBS/Tween (phosphate buffered saline/polyoxyalkylene derivatives of sorbitan fatty acid esters). […] The eluted phages are then amplified by infection in a bacterial strain (E. coli). The process is repeated three cycles so that an enrichment in the content of phages which specifically bind, and with high affinity, to TGF-β1 is achieved (FIG. 3). […] Thus, the phages selected in each cycle show more and more affinity for TGF-β1. At the end of the process, phages which have been selected for their affinity for TGF-β1, are sequenced by using primers, after isolation by tetracycline resistance of the genetically modified phages after infecting E. coli cells. […] The number of times which a sequence is repeated, corresponding to a 15 amino acids peptide carried by each clone, from the total of sequenced colonies is an indication of the degree of relative affinity of said 15 amino acids sequence for TGF-β1.
The selection of clones, obtained from the “biopanning”, was carried out by selection of the bacterial colonies infected with the phages in the presence of a bacterial antibiotic; the bacteria resistance is acquired by a tetracycline resistance gene encoded by the phage genome. Thus, only those colonies infected with bacteriophages are able to grow. This means that each colony contains the genome of only one phage coding for only one peptide presented in its surface.
A total number of 108 colonies of phage-infected bacteria were obtained from the last selection cycle of “biopanning”. The sequence of the regions coding for the peptides present in the pIII protein was carried out using primers identified with SEQ ID NO: 23. This table also reflects the number of colonies (clones) carrying said sequences.
The number of clones (colonies) of each sequence gives an approximate indication of the degree of affinity of the peptide for TGF-β1, that is, the more colonies the more binding affinity.
Target sequence in this assay (P01137 279-390 limits assumed, species assumed): as the sequence (P01137 279-390 limits assumed) above

Ends that are not written are not given here.

Regarding “KRIWFIPRSSWYERA [SEQ ID NO: 17, KRIWFIPRSSWYERA]”, the “CTGF mRNA expression induced by TGF-β1” value at TGF-β1 [1] is “significantly decreased”. The No. colonies on TGF-β1 [2] turned out to be 3.
